# Results reported in article PMC5007443, “TNIK inhibition abrogates colorectal cancer stemness” (Nature Communications, 2016).
# “And” between values parts separate entries of the source, which are not always exact repeats. Equal values may be shown once.
# Columns and labels:
# p70S6K = p70S6K (Homo sapiens, UniProt P23443); assay: Kinase selectivity profiling, Ribosomal protein S6 kinase; format: biochemical; details: read-out: Percentage inhibition of p70S6K
# Procedure: (§1) The selectivity of compounds against a panel of 50 human protein kinases was assessed using a non-radiometric assay.
# Erk2 = Erk2 (Homo sapiens, UniProt P28482); assay: Kinase selectivity profiling, Mitogen-activated protein kinase 1; format: biochemical; details: read-out: Percentage inhibition of Erk2
# Procedure: as §1
# Spheroid #6 = assay: ALDH activity of spheroid #6; format: cell-based, human; details: spheroid #6, 1 μM, 48 hr
# Procedure: Cells with ALDH activity were detected using an Aldefluor kit (Stem Cell Technologies) in accordance with the manufacturer's instructions. Briefly, cells were incubated in Aldefluor assay buffer containing ALDH substrate for 30 min at 37 °C. As a negative control, an aliquot of each sample was treated with 50 mM diethylaminobenzaldehyde (DEAB) to block ALDH activity. Cells were analysed with a Guava easy Cyte HT flow cytometer. Data analysis was performed using the Guava InCyte software. The analysis was performed in triplicate and repeated at least two times.
# DLD-1 cells = assay: In vivo tumorigenicity of pretreated DLD-1 cells in NOD/ShiJic-scid mice; set-up: species or system mouse; details: DLD-1, short-term in vitro treatment
# Procedure: After washing off the compounds, 10,000, 1,000, 100 or 10 viable cells in culture medium containing 50% Matrigel (BD Biosciences) were injected subcutaneously into the flanks of NOD/ShiJic-scid Jcl (6-week-old male) mice. The number of mice that developed tumours was counted, and the frequency of cells with tumour-forming capability was calculated using the ELDA software.
# TRKA = TRKA (Homo sapiens, UniProt P04629); assay: Kinase selectivity profiling, Tropomyosin receptor kinase A; format: biochemical; details: 0.1 µM inhibitor, ATP at Km; for inhibition at 0.1 µM: read-out: Percentage inhibition of TRKA
# Sequence of TRKA (P04629 33-796): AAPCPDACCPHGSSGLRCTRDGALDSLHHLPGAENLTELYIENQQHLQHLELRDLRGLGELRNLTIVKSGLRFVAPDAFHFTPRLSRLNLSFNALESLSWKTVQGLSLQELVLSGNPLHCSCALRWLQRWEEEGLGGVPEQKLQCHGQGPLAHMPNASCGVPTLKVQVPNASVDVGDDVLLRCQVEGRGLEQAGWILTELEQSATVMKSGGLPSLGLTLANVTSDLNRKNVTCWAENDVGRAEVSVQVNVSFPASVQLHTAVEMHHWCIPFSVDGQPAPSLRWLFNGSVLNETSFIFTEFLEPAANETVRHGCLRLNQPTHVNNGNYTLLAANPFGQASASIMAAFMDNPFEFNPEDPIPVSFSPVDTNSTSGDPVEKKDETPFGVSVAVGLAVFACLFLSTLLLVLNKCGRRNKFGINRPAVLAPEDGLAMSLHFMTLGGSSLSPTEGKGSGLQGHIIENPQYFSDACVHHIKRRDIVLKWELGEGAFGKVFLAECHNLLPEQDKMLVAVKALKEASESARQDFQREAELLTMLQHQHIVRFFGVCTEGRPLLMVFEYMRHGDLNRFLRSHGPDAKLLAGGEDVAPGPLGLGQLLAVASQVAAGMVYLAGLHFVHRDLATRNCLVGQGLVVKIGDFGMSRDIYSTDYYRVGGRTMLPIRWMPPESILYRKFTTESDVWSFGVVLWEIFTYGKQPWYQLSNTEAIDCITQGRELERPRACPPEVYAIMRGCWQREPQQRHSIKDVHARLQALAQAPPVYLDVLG
# Procedure: as §1
# IGF1R = IGF1R (Homo sapiens, UniProt P08069); assay: Kinase selectivity profiling, Insulin-like growth factor 1 receptor; format: biochemical; details: read-out: Percentage inhibition of IGF1R
# Sequence of IGF1R (P08069 31-1367): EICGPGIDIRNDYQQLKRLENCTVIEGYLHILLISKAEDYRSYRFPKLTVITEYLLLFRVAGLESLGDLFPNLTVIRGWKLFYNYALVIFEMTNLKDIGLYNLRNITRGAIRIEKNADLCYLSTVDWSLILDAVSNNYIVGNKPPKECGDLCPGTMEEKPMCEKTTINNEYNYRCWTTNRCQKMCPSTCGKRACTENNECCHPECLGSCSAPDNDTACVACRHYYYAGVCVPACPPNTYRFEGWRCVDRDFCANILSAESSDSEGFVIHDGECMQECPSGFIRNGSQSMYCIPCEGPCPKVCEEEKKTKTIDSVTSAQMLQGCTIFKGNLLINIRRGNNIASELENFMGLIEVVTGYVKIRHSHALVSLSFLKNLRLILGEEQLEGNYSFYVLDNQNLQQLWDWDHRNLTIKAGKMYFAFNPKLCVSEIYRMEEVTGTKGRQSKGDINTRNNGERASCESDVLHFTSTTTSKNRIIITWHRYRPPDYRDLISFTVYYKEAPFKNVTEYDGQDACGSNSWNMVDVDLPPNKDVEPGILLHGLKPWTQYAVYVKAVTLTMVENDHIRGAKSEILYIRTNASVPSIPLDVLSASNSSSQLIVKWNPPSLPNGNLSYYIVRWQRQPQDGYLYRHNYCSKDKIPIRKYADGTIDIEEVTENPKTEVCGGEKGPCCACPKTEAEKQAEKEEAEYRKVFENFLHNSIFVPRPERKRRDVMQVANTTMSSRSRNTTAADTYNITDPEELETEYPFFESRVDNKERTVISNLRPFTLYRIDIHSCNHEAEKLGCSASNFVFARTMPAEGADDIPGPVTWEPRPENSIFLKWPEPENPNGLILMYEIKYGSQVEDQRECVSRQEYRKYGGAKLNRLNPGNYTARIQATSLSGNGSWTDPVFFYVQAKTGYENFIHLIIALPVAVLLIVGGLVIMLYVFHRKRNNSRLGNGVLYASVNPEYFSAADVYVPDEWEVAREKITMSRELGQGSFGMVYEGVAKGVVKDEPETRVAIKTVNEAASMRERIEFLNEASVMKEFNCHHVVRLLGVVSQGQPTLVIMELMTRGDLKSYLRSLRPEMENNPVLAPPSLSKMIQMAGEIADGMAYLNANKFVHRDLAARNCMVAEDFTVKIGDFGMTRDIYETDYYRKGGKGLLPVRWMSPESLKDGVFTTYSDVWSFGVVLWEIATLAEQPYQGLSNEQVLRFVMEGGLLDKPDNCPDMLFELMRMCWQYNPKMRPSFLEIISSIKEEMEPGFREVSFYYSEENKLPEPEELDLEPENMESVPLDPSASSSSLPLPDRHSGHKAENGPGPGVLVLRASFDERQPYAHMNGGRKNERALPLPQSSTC
# Procedure: as §1
# NEK2 = NEK2 (Homo sapiens, UniProt P51955); assay: Kinase selectivity profiling, Never in mitosis gene A-related kinase 2; format: biochemical; details: read-out: Percentage inhibition of NEK2
# Procedure: as §1
# CK1ε = CK1ε (Homo sapiens, UniProt P49674); assay: Kinase selectivity profiling, Casein kinase 1ε; format: biochemical; details: read-out: Percentage inhibition of CK1ε
# Procedure: as §1
# HCT116 cells [1] = assay: Limiting dilution analysis of sphere formation, HCT116; format: cell-based, human
# Procedure: One million HCT116 and DLD-1 cells were seeded onto 60-mm plates and treated with vehicle (DMSO) or compounds (0.1, 0.3 or 1.0 μM) for either 3 or 4 days. After washing off the compounds, the cells were dissociated to single cells in serum-free DMEM/F12 medium (Thermo Fisher Scientific) containing B27 (Thermo Fisher Scientific), 20 ng ml^−1 epidermal growth factor (EGF; Thermo Fisher Scientific), 10 ng ml^−1 basic fibroblast factor (bFGF; Thermo Fisher Scientific), 5 μg ml^−1 insulin (Thermo Fisher Scientific), 0.4% bovine serum albumin (Sigma-Aldrich) and 2 mM L-glutamine (Thermo Fisher Scientific). One hundred, 10 or 1 viable (determined by trypan-blue dye exclusion) cells were seeded into each well of a 96-well U-bottom PrimeSurface plate (Sumitomo Bakelite). Ten days later, the number of wells showing sphere formation was counted. The frequency of sphere-forming cells was calculated using ELDA software (http://bioinf.wehi.edu.au/software/elda/index.html) provided by the Walter and Eliza Hall Institute (Fig. 5c; Supplementary Table 2). Experiments were performed in triplicate and repeated at least two times.
# [2] = tested on: patient-derived colorectal cancer spheroids #6; assay: Limiting dilution analysis of sphere reformation, spheroids #6; format: cell-based, human; details: spheroids #6, 3-day Treatment
# Procedure: Spheroids were gently dissociated into single cells with the use of StemPro Accutase (Thermo Fisher Scientific), and 1,000, 100, 10 or 1 viable cells were seeded into each well of a 96-well U-bottom PrimeSurface plate (Supplementary Figs 10b and 12). Experiments were performed in triplicate and repeated at least two times.
# PKCα = PKCα (Homo sapiens, UniProt P17252); assay: Kinase selectivity profiling, Protein kinase C-α; format: biochemical; details: read-out: Percentage inhibition of PKCα
# Procedure: as §1
# MAPKAPK2 = MAPKAPK2 (Homo sapiens, UniProt P49137); assay: Kinase selectivity profiling, Mitogen-activated protein kinase-activated protein kinase 2; format: biochemical; details: read-out: Percentage inhibition of MAPKAPK2
# Procedure: as §1
# IKKβ = IKKβ (Homo sapiens, UniProt O14920); assay: Kinase selectivity profiling, I-kappa-B kinase-β; format: biochemical; details: read-out: Percentage inhibition of IKKβ
# Procedure: as §1
# HGK = HGK (Homo sapiens, UniProt O95819); assay: Kinase selectivity profiling, Hematopoietic progenitor kinase; format: biochemical; details: 0.1 µM inhibitor, ATP at Km; for inhibition at 0.1 µM: read-out: Percentage inhibition of HGK
# Sequence of HGK (O95819 whole entry): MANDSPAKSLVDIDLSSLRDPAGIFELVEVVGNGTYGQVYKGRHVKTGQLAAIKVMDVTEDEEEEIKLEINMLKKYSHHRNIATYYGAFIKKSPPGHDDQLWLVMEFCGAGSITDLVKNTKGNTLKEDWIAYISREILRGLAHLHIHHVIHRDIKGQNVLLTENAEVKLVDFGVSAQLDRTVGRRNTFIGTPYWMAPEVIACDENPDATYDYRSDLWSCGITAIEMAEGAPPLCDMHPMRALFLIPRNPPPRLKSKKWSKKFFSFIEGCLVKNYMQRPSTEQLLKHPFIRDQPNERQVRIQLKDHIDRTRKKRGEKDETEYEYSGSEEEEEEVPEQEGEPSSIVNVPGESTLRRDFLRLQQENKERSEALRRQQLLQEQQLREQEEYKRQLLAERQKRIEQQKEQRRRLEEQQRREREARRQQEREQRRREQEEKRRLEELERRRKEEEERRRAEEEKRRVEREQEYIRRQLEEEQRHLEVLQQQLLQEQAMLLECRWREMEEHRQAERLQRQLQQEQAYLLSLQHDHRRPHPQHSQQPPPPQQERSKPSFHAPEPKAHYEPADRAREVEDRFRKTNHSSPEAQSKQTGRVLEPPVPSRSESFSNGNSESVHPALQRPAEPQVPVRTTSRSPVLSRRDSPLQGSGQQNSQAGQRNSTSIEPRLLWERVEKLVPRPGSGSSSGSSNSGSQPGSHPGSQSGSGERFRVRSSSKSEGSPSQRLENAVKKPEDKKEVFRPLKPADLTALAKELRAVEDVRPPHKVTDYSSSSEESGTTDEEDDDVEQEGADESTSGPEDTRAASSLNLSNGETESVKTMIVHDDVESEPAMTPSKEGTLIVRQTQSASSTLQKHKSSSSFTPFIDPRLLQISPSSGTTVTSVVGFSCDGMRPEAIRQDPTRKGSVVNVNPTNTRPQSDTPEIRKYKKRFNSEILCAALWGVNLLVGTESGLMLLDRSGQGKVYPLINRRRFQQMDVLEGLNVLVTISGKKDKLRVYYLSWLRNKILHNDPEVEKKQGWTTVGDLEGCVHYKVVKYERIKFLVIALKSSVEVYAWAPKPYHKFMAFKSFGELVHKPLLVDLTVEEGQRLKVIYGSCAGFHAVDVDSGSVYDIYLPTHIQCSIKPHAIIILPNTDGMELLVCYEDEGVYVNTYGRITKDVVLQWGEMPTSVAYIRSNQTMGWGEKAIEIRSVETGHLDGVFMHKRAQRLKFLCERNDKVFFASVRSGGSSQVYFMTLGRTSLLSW
# Procedure: as §1
# FLT3 = FLT3 (Homo sapiens, UniProt P36888); assay: Kinase selectivity profiling, Fms-related tyrosine kinase 3; format: biochemical; details: 0.1 µM inhibitor, ATP at Km
# Sequence of FLT3 (P36888 27-993): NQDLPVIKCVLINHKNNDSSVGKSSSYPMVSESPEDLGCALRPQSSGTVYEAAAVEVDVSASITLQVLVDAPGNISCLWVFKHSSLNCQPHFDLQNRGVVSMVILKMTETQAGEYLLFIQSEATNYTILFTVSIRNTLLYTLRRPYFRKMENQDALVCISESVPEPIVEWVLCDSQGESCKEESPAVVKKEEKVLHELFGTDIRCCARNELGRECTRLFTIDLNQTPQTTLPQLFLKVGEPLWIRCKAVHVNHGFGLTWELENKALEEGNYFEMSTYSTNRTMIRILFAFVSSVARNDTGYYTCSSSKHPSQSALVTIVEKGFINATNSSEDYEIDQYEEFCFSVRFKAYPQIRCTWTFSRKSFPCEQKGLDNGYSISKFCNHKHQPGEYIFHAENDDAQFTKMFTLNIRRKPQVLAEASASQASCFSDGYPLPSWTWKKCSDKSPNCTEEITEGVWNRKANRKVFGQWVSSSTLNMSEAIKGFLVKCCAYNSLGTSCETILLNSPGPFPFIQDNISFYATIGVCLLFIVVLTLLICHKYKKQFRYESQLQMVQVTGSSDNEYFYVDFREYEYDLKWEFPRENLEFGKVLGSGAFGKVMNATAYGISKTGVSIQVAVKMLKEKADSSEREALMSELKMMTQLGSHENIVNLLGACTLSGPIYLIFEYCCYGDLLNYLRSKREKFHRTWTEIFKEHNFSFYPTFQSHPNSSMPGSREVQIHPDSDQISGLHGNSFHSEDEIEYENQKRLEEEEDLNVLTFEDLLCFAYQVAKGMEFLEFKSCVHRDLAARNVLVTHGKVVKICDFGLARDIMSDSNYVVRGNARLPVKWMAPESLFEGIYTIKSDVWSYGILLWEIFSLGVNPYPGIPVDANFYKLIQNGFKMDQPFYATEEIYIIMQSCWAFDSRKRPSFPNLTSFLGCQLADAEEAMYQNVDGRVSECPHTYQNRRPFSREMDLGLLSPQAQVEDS
# Procedure: as §1
# HCT116 cells [3] = assay: Drug sensitivity assay, ATP production, 2D culture; format: cell-based; details: Homo sapiens, HCT-116; HCT116, 2D culture, 72 h; read-out: IC50, ATP production (cell growth)
# Procedure: Cells were seeded at a density of 3,000 cells per well in 96-well plates. Twenty-four hours after seeding, the cells were exposed to serially diluted compounds (0.003, 0.01, 0.03, 0.1, 0.3, 1, 3 and 10 μM) and incubated for 72 h (Fig. 3a). Patient-derived colorectal cancer spheroids were dissociated into single cells with Accutase (Nacalai Tesque) and seeded at a density of 3,000 cells per well into Ultra-Low attachment multiwall 96-well plates (Corning; Fig. 6d). ATP was measured with a CellTiter-Glo Luminescent Cell Viability Assay kit (Promega). Experiments were performed in triplicate and repeated at least two times.
# [4] = HCT116, 3-day treatment, 0.1μM, 1 cell per well
# [5] = HCT116, 3-day treatment, 0.1μM, 10 cells per well
# [6] = HCT116, 3-day treatment, 0.1μM, 100 cells per well
# [7] = HCT116, 3-day treatment, 0.3μM, 1 cell per well
# [8] = HCT116, 3-day treatment, 0.3μM, 10 cells per well
# [9] = HCT116, 3-day treatment, 0.3μM, 100 cells per well
# [10] = HCT116, 3-day treatment, 1.0μM, 1 cell per well
# [11] = HCT116, 3-day treatment, 1.0μM, 10 cells per well
# [12] = HCT116, 3-day treatment, 1.0μM, 100 cells per well
# [13] = HCT116, 4-day treatment, 0.1μM, 1 cell per well
# [14] = HCT116, 4-day treatment, 0.1μM, 10 cells per well
# [15] = HCT116, 4-day treatment, 0.1μM, 100 cells per well
# [16] = HCT116, 4-day treatment, 0.3μM, 1 cell per well
# [17] = HCT116, 4-day treatment, 0.3μM, 10 cells per well
# [18] = HCT116, 4-day treatment, 0.3μM, 100 cells per well
# [19] = HCT116, 4-day treatment, 1.0μM, 1 cell per well
# [20] = HCT116, 4-day treatment, 1.0μM, 10 cells per well
# [21] = HCT116, 4-day treatment, 1.0μM, 100 cells per well
# Sequence of p70S6K (P23443 whole entry): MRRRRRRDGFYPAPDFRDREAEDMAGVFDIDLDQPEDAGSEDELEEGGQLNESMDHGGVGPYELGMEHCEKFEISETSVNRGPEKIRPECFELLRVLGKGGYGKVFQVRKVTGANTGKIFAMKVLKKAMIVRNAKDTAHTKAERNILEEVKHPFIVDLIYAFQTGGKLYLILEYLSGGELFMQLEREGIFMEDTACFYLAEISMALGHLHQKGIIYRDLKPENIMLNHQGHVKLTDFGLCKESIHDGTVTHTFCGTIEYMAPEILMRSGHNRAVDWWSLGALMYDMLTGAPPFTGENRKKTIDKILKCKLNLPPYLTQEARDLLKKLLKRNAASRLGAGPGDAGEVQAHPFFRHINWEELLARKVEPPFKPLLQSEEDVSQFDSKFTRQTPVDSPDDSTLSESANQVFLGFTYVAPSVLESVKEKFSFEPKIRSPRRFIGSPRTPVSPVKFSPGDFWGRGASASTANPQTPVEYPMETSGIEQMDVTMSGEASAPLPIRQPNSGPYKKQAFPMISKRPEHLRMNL
smiles,measurement,setting,value
"O[C@H]1CC[C@@H](Oc2cccc3cnc(Nc4ccc5nc[nH]c5c4)nc23)CC1 [NCB-0846, cis-4-(2-(3H-benzo[d]imidazol-5-ylamino)quinazolin-8-yloxy)cyclohexanol]",inhibition at 0.1 µM,p70S6K,11%
same,inhibition at 0.1 µM,Erk2,0.7%
same,"percentage of cells with ALDH activity, - DEAB",Spheroid #6,19.43%
same,"percentage of cells with ALDH activity, + DEAB",Spheroid #6,1.01%
same,tumour formation,DLD-1 cells,significantly reduced
same,Percentage inhibition of TRKA,TRKA; 0.1 µM,89.1%
same,inhibition at 0.1 µM,TRKA,> 80%
same,inhibition at 0.1 µM,IGF1R,10.7%
same,inhibition at 0.1 µM,NEK2,-3.5%
same,inhibition at 0.1 µM,CK1ε,-2.8%
same,Sphere-containing wells/total wells,HCT116 cells [1]; [4],60/96
same,Sphere-containing wells/total wells,HCT116 cells [1]; [5],96/96
same,Sphere-containing wells/total wells,HCT116 cells [1]; [6],96/96
same,Sphere-containing wells/total wells,HCT116 cells [1]; [7],47/96
same,Sphere-containing wells/total wells,HCT116 cells [1]; [8],96/96
same,Sphere-containing wells/total wells,HCT116 cells [1]; [9],96/96
same,Sphere-containing wells/total wells,HCT116 cells [1]; [10],3/96
same,Sphere-containing wells/total wells,HCT116 cells [1]; [11],21/96
same,Sphere-containing wells/total wells,HCT116 cells [1]; [12],95/96
same,Sphere-containing wells/total wells,HCT116 cells [1]; [13],69/96
same,Sphere-containing wells/total wells,HCT116 cells [1]; [14],96/96
same,Sphere-containing wells/total wells,HCT116 cells [1]; [15],96/96
same,Sphere-containing wells/total wells,HCT116 cells [1]; [16],41/96
same,Sphere-containing wells/total wells,HCT116 cells [1]; [17],96/96
same,Sphere-containing wells/total wells,HCT116 cells [1]; [18],96/96
same,Sphere-containing wells/total wells,HCT116 cells [1]; [19],0/96
same,Sphere-containing wells/total wells,HCT116 cells [1]; [20],19/96
same,Sphere-containing wells/total wells,HCT116 cells [1]; [21],93/96
same,sphere formation activity,"HCT116 cells [1]; HCT116, short-term (3–4 days) treatment",significantly abrogated
same,Sphere-containing wells/total wells,"[2]; 0.1 μM, 1 cell per well",12/96
same,Sphere-containing wells/total wells,"[2]; 0.1 μM, 10 cells per well",77/96
same,Sphere-containing wells/total wells,"[2]; 0.1 μM, 100 cells per well",96/96
same,Sphere-containing wells/total wells,"[2]; 0.1 μM, 1000 cells per well",96/96
same,Sphere-containing wells/total wells,"[2]; 0.3 μM, 1 cell per well",3/96
same,Sphere-containing wells/total wells,"[2]; 0.3 μM, 10 cells per well",72/96
same,Sphere-containing wells/total wells,"[2]; 0.3 μM, 100 cells per well",96/96
same,Sphere-containing wells/total wells,"[2]; 0.3 μM, 1000 cells per well",96/96
same,Sphere-containing wells/total wells,"[2]; 1.0 μM, 1 cell per well",2/96
same,Sphere-containing wells/total wells,"[2]; 1.0 μM, 10 cells per well",49/96
same,Sphere-containing wells/total wells,"[2]; 1.0 μM, 100 cells per well",94/96
same,Sphere-containing wells/total wells,"[2]; 1.0 μM, 1000 cells per well",96/96
same,inhibition at 0.1 µM,PKCα,-0.9%
same,inhibition at 0.1 µM,MAPKAPK2,-5.8%
same,inhibition at 0.1 µM,IKKβ,6.8%
same,Percentage inhibition of HGK,HGK; 0.1 µM,80.5%
same,inhibition at 0.1 µM,HGK,> 80%
same,Percentage inhibition of FLT3,FLT3; 0.1 µM,> 80% and 104.1%
same,IC50,HCT116 cells [3],360 nM
O[C@H]1CC[C@H](Oc2cccc3cnc(Nc4ccc5nc[nH]c5c4)nc23)CC1 [NCB-0970],inhibition at 0.1 µM,p70S6K,11.4%
same,inhibition at 0.1 µM,Erk2,-2.1%
same,"percentage of cells with ALDH activity, - DEAB",Spheroid #6,44.32%
same,"percentage of cells with ALDH activity, + DEAB",Spheroid #6,2.30%
same,tumour formation,DLD-1 cells,not
same,inhibition at 0.1 µM,TRKA,81.6%
same,inhibition at 0.1 µM,IGF1R,1.2%
same,inhibition at 0.1 µM,NEK2,-4.5%
same,inhibition at 0.1 µM,CK1ε,-1.6%
same,Sphere-containing wells/total wells,HCT116 cells [1]; [4],62/96
same,Sphere-containing wells/total wells,HCT116 cells [1]; [5],96/96
same,Sphere-containing wells/total wells,HCT116 cells [1]; [6],96/96
same,Sphere-containing wells/total wells,HCT116 cells [1]; [7],65/96
same,Sphere-containing wells/total wells,HCT116 cells [1]; [8],96/96
same,Sphere-containing wells/total wells,HCT116 cells [1]; [9],96/96
same,Sphere-containing wells/total wells,HCT116 cells [1]; [10],60/96
same,Sphere-containing wells/total wells,HCT116 cells [1]; [11],96/96
same,Sphere-containing wells/total wells,HCT116 cells [1]; [12],96/96
same,Sphere-containing wells/total wells,HCT116 cells [1]; [13],59/96
same,Sphere-containing wells/total wells,HCT116 cells [1]; [14],96/96
same,Sphere-containing wells/total wells,HCT116 cells [1]; [15],96/96
same,Sphere-containing wells/total wells,HCT116 cells [1]; [16],60/96
same,Sphere-containing wells/total wells,HCT116 cells [1]; [17],96/96
same,Sphere-containing wells/total wells,HCT116 cells [1]; [18],96/96
same,Sphere-containing wells/total wells,HCT116 cells [1]; [19],56/96
same,Sphere-containing wells/total wells,HCT116 cells [1]; [20],96/96
same,Sphere-containing wells/total wells,HCT116 cells [1]; [21],96/96
same,Sphere-containing wells/total wells,"[2]; 0.1 μM, 1 cell per well",8/96
same,Sphere-containing wells/total wells,"[2]; 0.1 μM, 10 cells per well",83/96
same,Sphere-containing wells/total wells,"[2]; 0.1 μM, 100 cells per well",96/96
same,Sphere-containing wells/total wells,"[2]; 0.1 μM, 1000 cells per well",96/96
same,Sphere-containing wells/total wells,"[2]; 0.3 μM, 1 cell per well",10/96
same,Sphere-containing wells/total wells,"[2]; 0.3 μM, 10 cells per well",87/96
same,Sphere-containing wells/total wells,"[2]; 0.3 μM, 100 cells per well",96/96
same,Sphere-containing wells/total wells,"[2]; 0.3 μM, 1000 cells per well",96/96
same,"Sphere-initiating cell frequency, Estimate",[2]; 1.0 μM,1/15
same,Sphere-containing wells/total wells,"[2]; 1.0 μM, 1 cell per well",1/96
same,Sphere-containing wells/total wells,"[2]; 1.0 μM, 10 cells per well",50/96
same,Sphere-containing wells/total wells,"[2]; 1.0 μM, 100 cells per well",96/96
same,Sphere-containing wells/total wells,"[2]; 1.0 μM, 1000 cells per well",96/96
same,inhibition at 0.1 µM,PKCα,1.4%
same,inhibition at 0.1 µM,MAPKAPK2,-9.3%
same,inhibition at 0.1 µM,IKKβ,7.9%
same,inhibition at 0.1 µM,HGK,21.8%
same,inhibition at 0.1 µM,FLT3; read-out: Percentage inhibition of FLT3,102%
same,IC50,HCT116 cells [3],2400 nM
